Patent publication US20250034186A1, “ANTIVIRAL COMPOUNDS” (priority 2020, published 2025)
Read-outs that look alike come from different tables or passages of the source.

How the values were obtained:
HRV1a = assay: HRV1A HeLa EC50; assay type: cell-based, human rhinovirus; settings: for EC50: Human rhinovirus sp., HRV1A, HeLa, 96 h, read-out: HRV1A HeLa EC50
Procedure: H1-HeLa cells, cultured in complete RPMI 1640 medium containing 10% heat-inactivated FBS and 1% Penicillin/Streptomycin, were seeded in 96 well plates at 5000 cells/well one day prior to compound dosing and infection. The antiviral activity of each compound was measured in triplicate. Compounds were added directly to the cell cultures in serial 3-fold dilutions using the HP300 digital dispenser (Hewlett Packard, Palo Alto, CA) immediately prior to infection. The plates were transferred to BSL-2 containment and 100 μL of 1/4000 dilution of HRV1a virus stock was added to each well containing cells and serially diluted compounds. Each plate included 6 wells of infected untreated cells and 6 wells of cells containing 5 μM Rupintrivir that served as 0% and 100% virus inhibition control, respectively. Following the infection, test plates were incubated for 96 h in a tissue culture incubator set to 37° C./5% CO2. Following incubation, the H1-HeLa cells were removed from incubation and allowed to equilibrate to 25° C. Cell viability was determined by removing 100 μL of culture medium and adding 100 μL of Cell-Titer Glo viability reagent. The mixtures were incubated on a shaker for 10 minutes at 25° C., and the luminescence signal was quantified on an Envision luminescence plate reader.

RSV strain A2 = assay: RSV HEp-2 EC50, infectious cytopathic cell protection assay; assay type: cell-based; settings: for EC50: human respiratory syncytial virus, 96 h, RSV A2 in HEp-2 cells, 4 days, Cell TiterGlo
Procedure: Antiviral activity against RSV is determined using an infectious cytopathic cell protection assay in HEp-2 cells. In this assay, compounds inhibiting viral infection and/or replication produce a cytoprotective effect against the virus-induced cell killing that can be quantified using a cell viability reagent. The techniques used here are novel adaptations of methods described in published literature (Chapman et al., Antimicrob Agents Chemother. 2007, 51(9):3346-53.).
HEp-2 cells are obtained from ATCC (Manassas, VI) and maintained in MEM media supplemented with 10% fetal bovine serum and penicillin/streptomycin. Cells are passaged twice a week and kept at subconfluent stage. Commercial stock of RSV strain A2 (Advanced Biotechnologies, Columbia, MD) is titered before compound testing to determine the appropriate dilution of the virus stock that generates desirable cytopathic effect in HEp-2 cells.
For antiviral tests, HEp-2 cells are grown in large cell culture flasks to near confluency but not fully so. The compounds to be tested are prediluted in DMSO in 384-well compound dilution plates, either in an 8 or 40 sample per plate standardized dose response format. 3-fold serial dilution increments of each test compound are prepared in the plates and test samples are transferred via acoustic transfer apparatus (Echo, Labcyte) at 100 nL per well into cell culture assay 384-well plates. Each compound dilution is transferred in single or quadruplicate samples into dry assay plates, which are stored until assay is ready to go. The positive and negative controls are laid out in opposite on ends of the plate in vertical blocks (1 column).
Subsequently, an infectious mixture is prepared using an appropriate dilution of virus stock previously determined by titration with cells at a density of 50,000/mL and 20 μL/well is added to test plates w/compounds via automation (uFlow, Biotek). Each plate includes negative and positive controls (16 replicates each) to create 0% and 100% virus inhibition standards, respectively. Following the infection with RSV, testing plates are incubated for 4 days in a 37° C. cell culture incubator. After the incubation, a cell viability reagent, Cell TiterGlo (Promega, Madison, WI) is added to the assay plates, which are incubated briefly, and a luminescent readout is measured (Envision, Perkin Elmer) in all the assay plates. The RSV-induced cytopathic effect, percentage inhibition, is determined from the levels of remaining cell viability. […] Various potent anti-RSV tool compounds are used as positive controls for antiviral activity.

in vitro = in vitro ADME; settings: plasma, 37° C., up to 4 h
Procedure: For plasma stability, the compounds were incubated at 2 μM in cynomolgus monkey or human plasma for up to 4 h at 37° C. At desired time points, an aliquot from the incubation was quenched by addition of 9 volumes of 100% acetonitrile supplemented with internal standard. Following the last collection, samples were centrifuged at 3000 g for 30 min and supernatants were transferred to a new plate containing an equal volume of water for analysis by liquid chromatography coupled to triple quadrupole mass spectrometry (LC-MS/MS). Data (analyte to internal standard peak area ratio) were plotted on a semi log scale and fitted using an exponential fit. The half-life (T1/2) was determined assuming first order kinetics.

[1] = NRVM neonatal rat cardiomyocyte cytotoxicity assay; assay type: cell-based; settings: freshly harvested neonatal cardiomyocytes (NRVM)
Procedure: Compounds were tested in a high-throughput 384-well assay format for cytotoxicity against freshly harvested neonatal rat cardiomyocytes (NRVM). Cells were diluted in media (DMEM+10% FBS+1% PSG+1% NEAA) to 25,000 cells/mL, plated at 90 ul per well in 384 well cell assay plates and incubated overnight at 37° C. and 5% CO2 before compound addition. Compounds were prepared by serial dilution (1:3) in 100% DMSO in 384-well plates in quadruplicate. 400 nL/well of compound were transferred into cell assay plates via Biocel (Agilent Technologies). DMSO and 2 mM Puromycin were included as negative and positive controls respectively. After 5 days, plates are washed 1× w/ 100 ul/well PBS with Biotek plate washer, and 20 μL of Cell Titer Glo was added to each well. Plates were incubated 10 min and read on EnVision reader (Perkin Elmer). […] CC50 values were calculated in Accord (on-line tool) using a one-site dose-response model to generate sigmoidal curve fits.

[2] = human, read-out: Hum Plasma t1/2
[3] = cynomolgus monkey, read-out: Cyno Plasma t1/2

SMILES	EC50 (HRV1a) [nM]	EC50 (RSV strain A2) [nM]	half-life at 2 μM (in vitro; [2]) [h]	CC50 at 5 days [1] [nM]	half-life at 2 μM (in vitro; [3]) [h]	times more potent than compound 7, RSV HEp-2 (RSV strain A2; EC50 ratio vs compound 7) [times]	times more potent relative to compound 1, HRV1A HeLa (HRV1a; EC50 ratio vs compound 1) [times]	times more potent compared to compound 2, HRV1A HeLa (HRV1a; EC50 ratio vs compound 2)	times more potent relative to compound 3, HRV1A HeLa (HRV1a; EC50 ratio vs compound 3)	times more potent relative to compound 5, HRV1A HeLa (HRV1a; EC50 ratio vs compound 5)	times more potent than the compound of Formula Ib, RSV HEp-2 (RSV strain A2; EC50 ratio vs Formula Ib) [times]	more potent relative to compound 1, RSV Hep-2 (RSV strain A2; EC50 ratio vs compound 1)	times more potent relative to compound 3, RSV Hep-2 (RSV strain A2; EC50 ratio vs compound 3)	times more potent relative to compound 4, RSV Hep-2 (RSV strain A2; EC50 ratio vs compound 4)	times more potent relative to compound 5, RSV Hep-2 (RSV strain A2; EC50 ratio vs compound 5)
CCOC(=O)[C@H](C)NP(=O)(OC[C@@]1(C#N)O[C@@H](c2ccc3c(N)ncnn23)[C@H](O)[C@@H]1O)Oc1ccccc1 (stereo partly shown) [Compound 1, reference compound]	409	352	11.1	> 44400											
CCC(CC)COC(=O)[C@H](C)NP(=O)(OC[C@@]1(C#N)O[C@@H](c2ccc3c(N)ncnn23)[C@H](O)[C@@H]1O)Oc1ccccc1 (stereo partly shown) [Compound 2, reference compound]	97	69	2.53	> 44400	4.82										
CCC(CC)COC(=O)[C@H](C)N[P@](=O)(OC[C@@]1(C#N)O[C@@H](c2ccc3c(N)ncnn23)[C@H](O)[C@@H]1O)Oc1ccccc1 [Compound 6, 2-ethylbutyl ((S)-(((2R,3S,4R,5S)-5-(4-aminopyrrolo[2,1-f][1,2,4]triazin-7-yl)-2-cyano-3,4-dihydroxytetrahydrofuran-2-yl)methoxy)(phenoxy)phosphoryl)alaninate]		26	2.18	8090	4.28	4.8									
C[C@H](N[P@](=O)(OC[C@@]1(C#N)O[C@@H](c2ccc3c(N)ncnn23)[C@H](O)[C@@H]1O)Oc1ccccc1)C(=O)OC1CCCCC1 [Formula I, cyclohexyl ((S)-(((2R,3S,4R,5S)-5-(4-aminopyrrolo[2,1-f][1,2,4]triazin-7-yl)-2-cyano-3,4-dihydroxytetrahydrofuran-2-yl)methoxy)(phenoxy)phosphoryl)-L-alaninate]	8	88	8.05	27700	7.4		~51.1	about 12.1 times	about 91.9 times	about 203.1 times	31.1	about 4.0	about 5 times	about 3.9 times	about 19.8 times
